Laboratory results taken from the kinase profiling compilation of Christmann-Franck et al. (2016).

How the values were obtained:
Experiment in all cases: KINOMEscan competition binding
Details in all cases: compound 1.0 µM
CDC42BPG (human) = CDC42BPG (human) (UniProt Q6DT37)
CDK15 (human) = CDK15 (human) (UniProt Q96Q40)
CDK3 (human) = CDK3 (human) (UniProt Q00526)
CDK4 CCND1 (human) = CDK4 CCND1 (human) (UniProt P11802+P24385)
CHUK (human) = CHUK (human) (UniProt O15111)
DCLK2 (human) = DCLK2 (human) (UniProt Q8N568)
DYRK1B (human) = DYRK1B (human) (UniProt Q9Y463)
Sequence of DYRK1B (human) (Q9Y463 whole entry, looked up): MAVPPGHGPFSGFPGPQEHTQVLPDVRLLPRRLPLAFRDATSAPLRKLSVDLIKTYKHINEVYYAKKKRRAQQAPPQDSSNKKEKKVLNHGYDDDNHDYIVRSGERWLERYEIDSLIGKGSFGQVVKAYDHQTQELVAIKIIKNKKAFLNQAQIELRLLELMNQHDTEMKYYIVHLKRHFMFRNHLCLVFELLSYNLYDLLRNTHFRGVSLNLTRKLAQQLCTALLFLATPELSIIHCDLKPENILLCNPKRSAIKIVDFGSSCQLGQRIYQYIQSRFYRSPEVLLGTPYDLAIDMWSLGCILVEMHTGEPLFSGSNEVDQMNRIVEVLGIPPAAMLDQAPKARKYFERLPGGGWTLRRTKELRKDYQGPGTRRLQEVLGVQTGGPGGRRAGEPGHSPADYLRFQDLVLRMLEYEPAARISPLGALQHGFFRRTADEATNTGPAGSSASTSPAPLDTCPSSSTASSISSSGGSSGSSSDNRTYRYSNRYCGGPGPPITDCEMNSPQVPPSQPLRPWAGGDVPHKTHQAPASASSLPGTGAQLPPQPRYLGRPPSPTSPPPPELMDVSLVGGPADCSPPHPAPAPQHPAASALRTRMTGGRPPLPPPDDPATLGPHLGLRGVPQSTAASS

[1] = tested on: EGFR (human), P00533 [L858R]
[2] = tested on: EIF2AK4 KD2 (human), Q9P2K8 [S808G]
EPHA1 (human) = EPHA1 (human) (UniProt P21709)
FER (human) = FER (human) (UniProt P16591)
GSK3B (human) = GSK3B (human) (UniProt P49841)
ICK (human) = ICK (human) (UniProt Q9UPZ9)
IKBKE (human) = IKBKE (human) (UniProt Q14164)
ITK (human) = ITK (human) (UniProt Q08881)
Sequence of ITK (human) (Q08881 whole entry, looked up): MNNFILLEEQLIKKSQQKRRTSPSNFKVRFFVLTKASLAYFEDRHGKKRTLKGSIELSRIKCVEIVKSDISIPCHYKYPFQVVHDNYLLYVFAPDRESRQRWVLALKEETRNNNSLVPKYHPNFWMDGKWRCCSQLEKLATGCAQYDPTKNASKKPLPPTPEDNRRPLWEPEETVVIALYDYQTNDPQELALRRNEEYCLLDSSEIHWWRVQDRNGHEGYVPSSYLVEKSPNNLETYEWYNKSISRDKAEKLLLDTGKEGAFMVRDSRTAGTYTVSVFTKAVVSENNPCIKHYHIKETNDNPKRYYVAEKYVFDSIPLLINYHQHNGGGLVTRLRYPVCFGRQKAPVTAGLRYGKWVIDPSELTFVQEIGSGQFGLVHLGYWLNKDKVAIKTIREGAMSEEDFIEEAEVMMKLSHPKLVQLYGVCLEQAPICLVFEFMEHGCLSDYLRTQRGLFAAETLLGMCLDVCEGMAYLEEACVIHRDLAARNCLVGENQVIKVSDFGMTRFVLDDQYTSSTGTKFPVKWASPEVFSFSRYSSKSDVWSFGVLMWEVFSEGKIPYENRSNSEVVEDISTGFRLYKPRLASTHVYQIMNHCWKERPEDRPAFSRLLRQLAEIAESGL

LYN (human) = LYN (human) (UniProt P07948)
MAPK1 (human) = MAPK1 (human) (UniProt P28482)
MAPK13 (human) = MAPK13 (human) (UniProt O15264)
MAPK3 (human) = MAPK3 (human) (UniProt P27361)
[3] = tested on: MET (human), P08581 [M1250T]
MUSK (human) = MUSK (human) (UniProt O15146)
MYO3B (human) = MYO3B (human) (UniProt Q8WXR4)
NEK4 (human) = NEK4 (human) (UniProt P51957)
[4] = tested on: PIK3CA (human), P42336 [C420R]
PIM3 (human) = PIM3 (human) (UniProt Q86V86)
PRKACA (human) = PRKACA (human) (UniProt P17612)
PRKG1 (human) = PRKG1 (human) (UniProt Q13976)
RET (human) = RET (human) (UniProt P07949)
RIPK4 (human) = RIPK4 (human) (UniProt P57078)
SGK1 (human) = SGK1 (human) (UniProt O00141)
SGK110 (human) = SGK110 (human) (UniProt P0C264)
SLK (human) = SLK (human) (UniProt Q9H2G2)
Sequence of SLK (human) (Q9H2G2 whole entry, looked up): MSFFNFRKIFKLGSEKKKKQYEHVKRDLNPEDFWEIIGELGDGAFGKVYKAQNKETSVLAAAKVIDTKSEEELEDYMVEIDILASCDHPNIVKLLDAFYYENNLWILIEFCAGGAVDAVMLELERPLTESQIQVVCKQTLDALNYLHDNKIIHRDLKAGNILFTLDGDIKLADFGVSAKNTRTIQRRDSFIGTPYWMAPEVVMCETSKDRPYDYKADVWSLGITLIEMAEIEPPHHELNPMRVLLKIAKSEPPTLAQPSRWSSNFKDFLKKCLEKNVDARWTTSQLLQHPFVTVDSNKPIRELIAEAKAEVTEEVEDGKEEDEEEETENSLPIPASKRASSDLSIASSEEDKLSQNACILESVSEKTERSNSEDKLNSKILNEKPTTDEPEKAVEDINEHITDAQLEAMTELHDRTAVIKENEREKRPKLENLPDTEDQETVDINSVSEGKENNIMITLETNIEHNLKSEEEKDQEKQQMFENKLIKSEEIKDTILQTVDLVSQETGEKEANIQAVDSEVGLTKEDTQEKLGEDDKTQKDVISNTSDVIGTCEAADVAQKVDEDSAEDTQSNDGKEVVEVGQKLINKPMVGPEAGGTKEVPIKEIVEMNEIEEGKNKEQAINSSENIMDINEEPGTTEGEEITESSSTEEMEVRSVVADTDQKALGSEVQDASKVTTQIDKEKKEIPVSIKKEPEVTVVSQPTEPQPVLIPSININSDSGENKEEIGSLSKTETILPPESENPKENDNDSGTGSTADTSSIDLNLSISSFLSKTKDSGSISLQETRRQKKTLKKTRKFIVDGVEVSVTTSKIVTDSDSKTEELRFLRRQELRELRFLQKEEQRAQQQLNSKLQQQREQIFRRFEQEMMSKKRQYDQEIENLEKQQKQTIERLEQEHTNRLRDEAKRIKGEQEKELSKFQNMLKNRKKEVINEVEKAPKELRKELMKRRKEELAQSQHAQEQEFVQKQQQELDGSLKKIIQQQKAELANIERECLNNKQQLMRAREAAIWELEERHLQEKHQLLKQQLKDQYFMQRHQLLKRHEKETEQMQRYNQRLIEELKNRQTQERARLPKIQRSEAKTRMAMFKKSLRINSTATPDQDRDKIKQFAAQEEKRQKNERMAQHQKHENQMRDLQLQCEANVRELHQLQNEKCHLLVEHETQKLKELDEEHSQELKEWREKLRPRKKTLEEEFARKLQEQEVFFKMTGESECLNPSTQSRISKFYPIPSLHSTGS

STK3 (human) = STK3 (human) (UniProt Q13188)
TAOK3 (human) = TAOK3 (human) (UniProt Q9H2K8)
TESK1 (human) = TESK1 (human) (UniProt Q15569)
Sequence of TESK1 (human) (Q15569 whole entry, looked up): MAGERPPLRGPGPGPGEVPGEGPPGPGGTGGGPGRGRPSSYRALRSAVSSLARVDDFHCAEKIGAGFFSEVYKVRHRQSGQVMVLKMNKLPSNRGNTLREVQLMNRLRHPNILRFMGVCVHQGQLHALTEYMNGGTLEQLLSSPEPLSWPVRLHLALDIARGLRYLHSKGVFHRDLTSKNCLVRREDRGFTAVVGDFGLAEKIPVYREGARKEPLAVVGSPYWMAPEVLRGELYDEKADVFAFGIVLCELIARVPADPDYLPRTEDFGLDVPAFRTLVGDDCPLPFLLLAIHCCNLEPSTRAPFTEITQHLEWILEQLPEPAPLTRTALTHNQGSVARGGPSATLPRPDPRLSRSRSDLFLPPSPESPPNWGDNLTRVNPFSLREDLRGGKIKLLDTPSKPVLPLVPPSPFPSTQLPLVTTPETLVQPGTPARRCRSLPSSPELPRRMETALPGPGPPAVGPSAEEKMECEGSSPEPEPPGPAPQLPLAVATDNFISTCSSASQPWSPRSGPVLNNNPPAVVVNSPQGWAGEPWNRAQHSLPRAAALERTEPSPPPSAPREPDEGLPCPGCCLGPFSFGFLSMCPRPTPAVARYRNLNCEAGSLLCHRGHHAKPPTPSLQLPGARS

TSSK1B (human) = TSSK1B (human) (UniProt Q9BXA7)
ULK2 (human) = ULK2 (human) (UniProt Q8IYT8)
WNK1 (human) = WNK1 (human) (UniProt Q9H4A3)
YSK4 (human) = YSK4 (human) (UniProt Q56UN5)

Sequence of CDC42BPG (human) (Q6DT37 whole entry, looked up): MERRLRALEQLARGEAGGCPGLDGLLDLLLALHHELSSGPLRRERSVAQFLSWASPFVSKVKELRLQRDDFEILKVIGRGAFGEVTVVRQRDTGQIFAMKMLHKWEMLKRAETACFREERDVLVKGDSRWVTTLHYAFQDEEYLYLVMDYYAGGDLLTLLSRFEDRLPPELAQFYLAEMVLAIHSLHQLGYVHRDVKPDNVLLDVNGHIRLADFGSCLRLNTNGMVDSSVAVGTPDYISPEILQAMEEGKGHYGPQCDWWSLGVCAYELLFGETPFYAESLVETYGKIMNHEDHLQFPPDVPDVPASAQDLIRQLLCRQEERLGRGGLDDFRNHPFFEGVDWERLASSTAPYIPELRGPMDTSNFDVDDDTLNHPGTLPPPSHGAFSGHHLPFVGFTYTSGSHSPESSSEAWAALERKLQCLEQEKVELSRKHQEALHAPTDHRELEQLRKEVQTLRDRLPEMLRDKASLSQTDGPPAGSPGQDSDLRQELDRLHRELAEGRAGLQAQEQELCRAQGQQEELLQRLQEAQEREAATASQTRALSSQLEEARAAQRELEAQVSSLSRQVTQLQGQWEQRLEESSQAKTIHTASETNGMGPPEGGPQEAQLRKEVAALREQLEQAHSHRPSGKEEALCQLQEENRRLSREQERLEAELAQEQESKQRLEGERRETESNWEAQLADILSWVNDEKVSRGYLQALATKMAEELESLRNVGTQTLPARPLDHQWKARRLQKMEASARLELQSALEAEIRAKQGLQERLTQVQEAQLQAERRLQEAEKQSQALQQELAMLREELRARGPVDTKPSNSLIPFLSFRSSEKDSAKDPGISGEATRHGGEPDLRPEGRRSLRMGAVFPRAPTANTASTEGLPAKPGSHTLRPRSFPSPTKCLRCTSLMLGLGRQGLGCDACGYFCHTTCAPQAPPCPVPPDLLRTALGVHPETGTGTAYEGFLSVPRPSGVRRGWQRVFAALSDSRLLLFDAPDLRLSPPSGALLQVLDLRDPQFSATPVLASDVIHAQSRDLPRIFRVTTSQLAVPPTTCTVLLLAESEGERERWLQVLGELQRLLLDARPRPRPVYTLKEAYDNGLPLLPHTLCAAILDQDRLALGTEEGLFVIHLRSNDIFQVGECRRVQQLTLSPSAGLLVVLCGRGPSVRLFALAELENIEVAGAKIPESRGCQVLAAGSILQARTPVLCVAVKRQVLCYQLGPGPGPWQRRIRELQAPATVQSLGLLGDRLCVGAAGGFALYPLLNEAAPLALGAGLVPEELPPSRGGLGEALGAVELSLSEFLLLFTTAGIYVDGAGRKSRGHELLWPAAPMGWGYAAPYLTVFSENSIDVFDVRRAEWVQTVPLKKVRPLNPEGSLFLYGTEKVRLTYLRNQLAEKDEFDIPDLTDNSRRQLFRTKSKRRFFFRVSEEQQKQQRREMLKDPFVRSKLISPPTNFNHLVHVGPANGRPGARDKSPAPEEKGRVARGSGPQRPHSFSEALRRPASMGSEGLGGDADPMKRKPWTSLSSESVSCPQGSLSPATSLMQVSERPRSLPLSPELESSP

`CNc1nc(Nc2ccc(C(=O)N3CCOCC3)cc2OC)ncc1Cl` gave a kinase still bound, per cent of control (CDC42BPG (human)) of 100%, a residual activity (CDK15 (human)) of 84% and a residual activity (CDK3 (human)) of 100%. The residual activity (CDK4 CCND1 (human)) was 100%, the kinase still bound, per cent of control (CHUK (human)) was 50% and the kinase still bound, per cent of control (DCLK2 (human)) was 100%. For the same compound, the kinase still bound, per cent of control (DYRK1B (human)) was 100%, the kinase still bound, per cent of control [1] was 100% and the kinase still bound, per cent of control [2] was 85%. It also gave a kinase still bound, per cent of control (EPHA1 (human)) of 100%, a kinase still bound, per cent of control (FER (human)) of 100% and a kinase still bound, per cent of control (GSK3B (human)) of 97%. For the same compound, the kinase still bound, per cent of control (ICK (human)) was 100%, the kinase still bound, per cent of control (IKBKE (human)) was 86% and the kinase still bound, per cent of control (ITK (human)) was 100%. The kinase still bound, per cent of control (LYN (human)) was 100%, the kinase still bound, per cent of control (MAPK1 (human)) was 100% and the kinase still bound, per cent of control (MAPK13 (human)) was 94%. The kinase still bound, per cent of control (MAPK3 (human)) was 100%, the kinase still bound, per cent of control [3] was 100% and the kinase still bound, per cent of control (MUSK (human)) was 100%. For the same compound, the kinase still bound, per cent of control (MYO3B (human)) was 100%, the kinase still bound, per cent of control (NEK4 (human)) was 87% and the kinase still bound, per cent of control [4] was 85%. The kinase still bound, per cent of control (PIM3 (human)) was 100%, the residual activity (PRKACA (human)) was 100% and the kinase still bound, per cent of control (PRKG1 (human)) was 82%. It also gave a kinase still bound, per cent of control (RET (human)) of 96%, a kinase still bound, per cent of control (RIPK4 (human)) of 100% and a kinase still bound, per cent of control (SGK1 (human)) of 82%. For the same compound, the kinase still bound, per cent of control (SGK110 (human)) was 100%, the kinase still bound, per cent of control (SLK (human)) was 100% and the kinase still bound, per cent of control (STK3 (human)) was 76%. For the same compound, the kinase still bound, per cent of control (TAOK3 (human)) was 100%, the kinase still bound, per cent of control (TESK1 (human)) was 100% and the kinase still bound, per cent of control (TSSK1B (human)) was 100%. The kinase still bound, per cent of control (ULK2 (human)) was 85%, the kinase still bound, per cent of control (WNK1 (human)) was 100% and the kinase still bound, per cent of control (YSK4 (human)) was 44%.
